# Results reported in patent publication US20220296599A1, “Pharmaceutical composition comprising histone deacetylase inhibitor and methotrexate” (Chong Kun Dang Pharmaceutical Corp., priority 2018, published 2022).
# Key:
# [1] = system: anti-CCP IgG; experiment: Analysis of anti-CCP IgG in plasma in AIA model (QUANTA Lite CCP3 IgG ELISA); type: in vivo, Lewis rats; details: Mean ± SD
# Protocol: (§1) Lewis rats (female, five-weeks old) were purchased from Central Lab Animal, Inc. and kept in a controlled environment with a temperature at 22±2° C., a humidity at 44-56% and a light/dark cycle of 12 hours, while being allowed to have a free access to standard diet and water for one week before an examination. Complete Freund's Adjuvant (Chondrex) containing 10 mg/mL of heat killed mycobacteria toxin was fully mixed together, after which […] thereof was taken and subcutaneously injected into each upper tail of the rats to induce arthritis therefrom.
# (§2) To administer a drug of compound 374 (SM374) and evaluate an effect thereof, the rats were divided into 11 groups (9, 10 or 11 animals per group) one day before or nine days after inducing arthritis, after which each group was classified according to administered substances (vehicle, compound 374 (SM374) or methotrexate (MTX)) and administration routes (oral administration (P.O.) or intraperitoneal administration (I.P.)) as shown in a following table 13.
# An effect of compound 374 (SM374) and MTX on preventing or treating arthritis according to administration thereof in combination was evaluated based on analysis of anti-CCP IgG, known as a diagnosis marker for rheumatoid arthritis.
# Particularly, blood was collected from each jugular vein of rats dosed with compound 374 (SM374, once per day) and MTX (once or twice per week) from 9th day to 16th day after inducing AIA, after which plasma was isolated therefrom, such that anti-CCP IgG was measured with QUANTA Lite®CCP3 (cyclic citrullinated peptide 3) IgG ELISA kit (INOVA Diagnostics Inc., U.S., catalog no. 704535) according to a protocol offered by a manufacturer thereof, wherein the results thereof are shown in FIG. 5 and Table 20.
# [2] = Analysis of body weights in AIA model; type: in vivo, Lewis rats; details: for Body weight (g) 9th day / Body weight (g) 13th day / Body weight (g) 16th day: Mean ± SD; for Body weight (g) 8th day / Body weight (g) 11th day / Body weight (g) 15th day / Body weight (g) 18th day: Table 19 study
# Protocol: as §1, §2
# (§3) Also, in order to administer a drug of compounds 374, 413, 484, 530 and 652 (SM374, SM413, SM484, SM530 and SM652) and evaluate an effect thereof, the rats were divided into 13 groups (9 or 10 animals per group) eight days after inducing arthritis, and each group was classified according to administered substances (vehicle, SM374, SM413, SM484, SM530, SM652 and MTX) and administration routes (oral or intraperitoneal administration) as shown in a following table 14.
# An analysis was made on the body weight of rats dosed with compound 374 (SM 374, once per day) or MIX (once per week or twice per week) from 9th day to 16th day after inducing AIA. […]
# [3] = Pharmacokinetic analysis, plasma concentration by LC/MS; type: in vivo; details: rats, MTX 1 mg/kg only
# Protocol: A bioequivalence was evaluated through a pharmacokinetic test on administration of the inventive compound 374 (SM374) and MTX in combination as well as administration of MTX only.
# Particularly, after administration of compound 374 (SM374) and MTX, plasma was isolated from blood collected from rats for each time slot, after which organic solvent was added into such plasma to carry out deproteinization and extraction, such that a resulting sample was subjected to quantitative analysis by means of liquid chromatography and mass spectrometer (LC/MS) along with a calibration sample treated under the same conditions, to measure a concentration of compound 374 (SM374) and MTX (FIG. 6 and Table 21) in plasma of the rats as well as each PK parameter (Table 22).
# [4] = system: adjuvant-induced arthritis (AIA) model; experiment: Clinical score analysis in adjuvant-induced arthritis (AIA) model; type: in vivo, Lewis rats; parameters: Clinical score 9th day / Clinical score 13th day / Clinical score 16th day / Clinical score 11th day / Clinical score 15th day / Clinical score 18th day: scale not given here; details: for Clinical score 9th day / Clinical score 13th day / Clinical score 16th day: Mean ± SD; for Clinical score 11th day / Clinical score 15th day / Clinical score 18th day: Mean ± SEM
# Protocol: as §1, §2, §3
# To identify the efficacy of the inventive composition on preventing or treating arthritis in an AIA model, an analysis was made on the clinical scores of rats dosed with a compound 374 (SM 374, once per day) or MTX (once per week or twice per week) from 9th day to 16th day after inducing arthritis.
# Particularly, a degree of swelling, erythema, etc., in each joint of the rats were observed, after which clinical scores were calculated according to a scoring system described in a following table 15, such that the clinical scores on four joints were added up to obtain total scores for each rat (Vishwakarma et al., 2013).
# To identify the efficacy of the inventive composition on preventing or treating arthritis in an AIA model, an analysis was made on the clinical scores of rats dosed with compounds 374, 413, 484, 530 and 652 (SM374, SM413, SM484, SM530 and SM652, once per day) or MIX (once per week) from 8th day to 18th day after inducing arthritis.
# [5] = MTX 3 mg/kg twice per week I.P.
# [6] = Table 17 study, MTX 1 mg/kg once per week I.P.
# [7] = Table 17 study, MTX 3 mg/kg once per week I.P.
# [8] = SM374 0.1 mg/kg once per day P.O.
# [9] = SM374 0.5 mg/kg once per day P.O.
# [10] = SM374 1 mg/kg once per day P.O.
# [11] = SM374 10 mg/kg once per day P.O.
# [12] = compound 10 mg/kg once per day P.O.
# [13] = Table 17 study, compound 10 mg/kg once per day P.O.
smiles,measurement,setting,value
"CN(Cc1cnc2nc(N)nc(N)c2n1)c1ccc(C(=O)N[C@@H](CCC(=O)O)C(=O)O)cc1 [MTX, Methotrexate]",Anti-CCP IgG (RU),[1]; MTX 1 mg/kg,208.0 ± 24.3 RU
same,Anti-CCP IgG (RU),[1]; MTX 3 mg/kg,104.6 ± 56.7 RU
same,Body weight (g) 9th day,[2]; MTX 1 mg/kg once per week I.P.,157.3 ± 11.9 g
same,Body weight (g) 13th day,[2]; MTX 1 mg/kg once per week I.P.,160.6 ± 4.2 g
same,Body weight (g) 16th day,[2]; MTX 1 mg/kg once per week I.P.,153.8 ± 7.9 g
same,Body weight (g) 9th day,[2]; [5],157.2 ± 7.3 g
same,Body weight (g) 13th day,[2]; [5],159.6 ± 5.7 g
same,Body weight (g) 16th day,[2]; [5],157.6 ± 5.7 g
same,Body weight (g) 8th day,[2]; MTX 1 mg/kg once per week I.P.,151.2 ± 2.4 g
same,Body weight (g) 11th day,[2]; MTX 1 mg/kg once per week I.P.,152.1 ± 2.3 g
same,Body weight (g) 15th day,[2]; MTX 1 mg/kg once per week I.P.,156.9 ± 2.8 g
same,Body weight (g) 18th day,[2]; MTX 1 mg/kg once per week I.P.,155.0 ± 3.9 g
same,Body weight (g) 8th day,[2]; MTX 3 mg/kg once per week I.P.,151.2 ± 2.4 g
same,Body weight (g) 11th day,[2]; MTX 3 mg/kg once per week I.P.,151.6 ± 3.8 g
same,Body weight (g) 15th day,[2]; MTX 3 mg/kg once per week I.P.,160.0 ± 2.9 g
same,Body weight (g) 18th day,[2]; MTX 3 mg/kg once per week I.P.,164.7 ± 2.5 g
same,AUC(0-inf),"[3]; rat, plasma",1510 ± 231 ng·h/mL
same,Cmax,"[3]; rat, plasma",1300 ± 97.3 ng/mL
same,Tmax,"[3]; rat, plasma",30 min
same,half-life,"[3]; rat, plasma",54 min
same,AUC(0-t),"[3]; rat, plasma, read-out: AUC0→8h",1500 ± 231 ng·h/mL
same,concentration at 0.5 hr,"[3]; rat, plasma, time 0.5 hr",1300 ± 97.3 ng/mL
same,concentration at 1 hr,"[3]; rat, plasma, time 1 hr",747 ± 129 ng/mL
same,concentration at 2 hr,"[3]; rat, plasma, time 2 hr",245 ± 108 ng/mL
same,concentration at 4 hr,"[3]; rat, plasma, time 4 hr",24.4 ± 9.7 ng/mL
same,concentration at 8 hr,"[3]; rat, plasma, time 8 hr",3 ± 0.3 ng/mL
same,Plasma concentration (ng/mL),[3]; time 0 hr,BLOQ
same,Rate of reduction in clinical scores (%),"[4]; MTX 1 mg/kg once per week I.P., 16th day vs vehicle",14.5%
same,Clinical score 9th day,[4]; MTX 1 mg/kg once per week I.P.,0.0 ± 0.0
same,Clinical score 13th day,[4]; MTX 1 mg/kg once per week I.P.,2.2 ± 1.2
same,Clinical score 16th day,[4]; MTX 1 mg/kg once per week I.P.,5.9 ± 2.8
same,Rate of reduction in clinical scores (%),"[4]; MTX 3 mg/kg twice per week I.P., 16th day vs vehicle",65.2%
same,Clinical score 9th day,[4]; [5],0.0 ± 0.0
same,Clinical score 13th day,[4]; [5],1.1 ± 1.6
same,Clinical score 16th day,[4]; [5],2.4 ± 3.0
same,Rate of reduction in clinical scores (%),"[4]; Table 17 study, MTX 1 mg/kg once per week I.P., 18th day vs vehicle",23.0%
same,Clinical score 11th day,[4]; [6],0.0 ± 0.0
same,Clinical score 15th day,[4]; [6],1.3 ± 0.9
same,Clinical score 18th day,[4]; [6],4.7 ± 1.9
same,Rate of reduction in clinical scores (%),"[4]; Table 17 study, MTX 3 mg/kg once per week I.P., 18th day vs vehicle",96.7%
same,Clinical score 11th day,[4]; [7],0.0 ± 0.0
same,Clinical score 15th day,[4]; [7],0.0 ± 0.0
same,Clinical score 18th day,[4]; [7],0.2 ± 0.2 #
"O=C(NO)c1ccc(CN(C(=O)N2CCOCC2)c2cccc(C(F)(F)F)c2)cc1 [SM374, N-(4-(hydroxycarbamoyl)benzyl)-N-(3-(trifluoromethyl)phenyl)morpholine-4-carboxamide]",Anti-CCP IgG (RU),[1]; SM374 0.5 mg/kg once per day,216.2 ± 30.0 RU
same,Anti-CCP IgG (RU),[1]; SM374 1 mg/kg once per day,221.8 ± 28.0 RU
same,Anti-CCP IgG (RU),[1]; SM374 10 mg/kg once per day,206.6 ± 32.9 RU
same,Body weight (g) 9th day,[2]; [8],157.3 ± 10.1 g
same,Body weight (g) 13th day,[2]; [8],151.3 ± 13.3 g
same,Body weight (g) 16th day,[2]; [8],144.2 ± 10.5 g
same,Body weight (g) 9th day,[2]; [9],157.3 ± 10.0 g
same,Body weight (g) 13th day,[2]; [9],153.1 ± 10.8 g
same,Body weight (g) 16th day,[2]; [9],148.6 ± 9.5 g
same,Body weight (g) 9th day,[2]; [10],157.3 ± 10.7 g
same,Body weight (g) 13th day,[2]; [10],156.9 ± 8.9 g
same,Body weight (g) 16th day,[2]; [10],151.6 ± 11.5 g
same,Body weight (g) 9th day,[2]; [11],157.3 ± 9.9 g
same,Body weight (g) 13th day,[2]; [11],151.6 ± 12.2 g
same,Body weight (g) 16th day,[2]; [11],147.6 ± 9.3 g
same,Body weight (g) 8th day,[2]; [12],151.3 ± 2.1 g
same,Body weight (g) 11th day,[2]; [12],153.9 ± 1.5 g
same,Body weight (g) 15th day,[2]; [12],159.2 ± 1.5 g
same,Body weight (g) 18th day,[2]; [12],157.6 ± 3.1 g
same,Rate of reduction in clinical scores (%),"[4]; SM374 0.1 mg/kg once per day P.O., 16th day vs vehicle",0%
same,Clinical score 9th day,[4]; [8],0.0 ± 0.0
same,Clinical score 13th day,[4]; [8],4.3 ± 2.9
same,Clinical score 16th day,[4]; [8],6.9 ± 3.0
same,Rate of reduction in clinical scores (%),"[4]; SM374 0.5 mg/kg once per day P.O., 16th day vs vehicle",2.9%
same,Clinical score 9th day,[4]; [9],0.0 ± 0.0
same,Clinical score 13th day,[4]; [9],2.6 ± 2.3
same,Clinical score 16th day,[4]; [9],6.7 ± 4.2
same,Rate of reduction in clinical scores (%),"[4]; SM374 1 mg/kg once per day P.O., 16th day vs vehicle",14.5%
same,Clinical score 9th day,[4]; [10],0.0 ± 0.0
same,Clinical score 13th day,[4]; [10],2.7 ± 3.0
same,Clinical score 16th day,[4]; [10],5.9 ± 4.4
same,Rate of reduction in clinical scores (%),"[4]; SM374 10 mg/kg once per day P.O., 16th day vs vehicle",−2.9%
same,Clinical score 9th day,[4]; [11],0.0 ± 0.0
same,Clinical score 13th day,[4]; [11],2.9 ± 2.9
same,Clinical score 16th day,[4]; [11],7.1 ± 3.1
same,Rate of reduction in clinical scores (%),"[4]; Table 17 study, compound 10 mg/kg once per day P.O., 18th day vs vehicle",21.3%
same,Clinical score 11th day,[4]; [13],0.0 ± 0.0
same,Clinical score 15th day,[4]; [13],1.6 ± 0.7
same,Clinical score 18th day,[4]; [13],4.8 ± 1.4
